The values that follow come from patent US5352462A, “Anti-inflammatory factor, method of isolation, and use” (Stolle Research & Development Corporation, priority 1992, dated 1994).

Test [1] has as its system superoxide production by neutrophils. Put plainly: Superoxide assay, cytochrome C reduction by stimulated neutrophils. In kind it is cell-based, human.
Procedure: Neutrophils from healthy donors were purified by dextran sedimentation followed by hypotonic lysis and Histopaque centrifugation. Except for the dextran sedimentation step, which was performed at room temperature, the cells were kept at 4° C. throughout the isolation procedure. […] After isolation, neutrophils were resuspended at a final concentration of 2×10^6 cells/ml in phosphate buffered saline (PBS). […] After washing, neutrophils were incubated in the dark at 4° C. for 30 minutes with saturating concentrations of fluorescein-conjugated murine anti-human CD18, human CD11 b, IGG coated microbeads (Simply Cellular™ microbeads) or the murine negative control antibody.
The reduction of cytochrome C by activated neutrophils was measured using a spectrophotometer (Hitachi U2000) at 550 nm. Briefly, sample was added to two cuvettes and one cuvette was used as a reference. The latter contained superoxide dismutase (superoxide scavenger). […] Superoxide production was measured for 3 min.
Test [2] concerns reverse passive Arthus reaction. In words: Reverse passive Arthus reaction. In kind it is in vivo, rat. To be noted: 20 mg i.v. Here is the method:
The possibility that the anti-inflammatory factor might affect neutrophil involvement was investigated by evaluating the ability of the material to modulate the reverse passive Arthus reaction (RPA). This immune complex-induced response is primarily neutrophil mediated and agents which affect the development of the reaction do so via an effect on these cells. To induce the RPA, rats were injected intradermally with rabbit antibody to ovalbumin and intravenously with native ovalbumin. Ovalbumin/ovalbumin-antibody immune complexes form in and around the dermal blood vessel walls, host neutrophils bind to the Fc portion of the antibody and an intense inflammatory reaction is initiated. It should be noted that, although the response is initiated by immune-complexes, it takes place independently of the host's immune system.
Three parameters are used to quantify the RPA. These are, (1) edema--measured using the accumulation of ^125 I-HSA, (2) hemorrhage--assessed by in vivo pre-labelling RBC's with ^59 Fe and (3) neutrophil accumulation--measured by determining tissue levels of the neutrophils specific enzyme myeloperoxidase (MPO). These assays are known to those of ordinary skill in the art.
Eighteen rats were divided into three groups of six. Rabbit antiovalbumin (40 μl) was injected intradermally at four sites on the back of each animal and 2 mg of ovalbumin injected intravenously immediately afterwards. One group of animals received no other treatment and served as controls. The second group were injected intravenously with 20 mg of a lactose preparation, while the final group were injected intravenously with 20 mg of a purified preparation of MAIF. Both lactose and MAIF preparation were administered with the ovalbumin. The severity of the reaction was assessed 3.5 hours after challenge.

For test [3], the system named is carrageenan-induced footpad edema. In words: Quantitative rat paw edema test with 125I-HSA. In kind it is in vivo. To be noted: aspirin 200 mg/kg oral, 30 min prior. Here is the method:
Peak I from the G-10 column, supplied by Stolle Milk Biologics International, was prepared according to the methods described in U.S. Pat. No. 4,956,349. Lactose, obtained from commercial sources, was used as placebo. Aspirin was used as a positive control. Aspirin was dissolved in water and given orally by gastric gavage at the ratio of 200 mg per kilogram, a dose known to be active in the assay. […] The footpad assay was modified by using isotopically labeled human serum albumin (^125 I-HSA) that localizes in the carrageenan-induced lesion in direct proportion to the volume of the exudate. By determining the total radioactive count in the footpad and comparing this to the counts in a known volume of plasma from the injected animal, a direct measurement of edema in microliters of plasma equivalents is obtained. ^125 I-HSA was injected intravenously at a dose of 1.0 microcurie per rat. Female Dark Agouti rats were used. […]
To conduct the carrageenan footpad assay, 0.1 ml of 2% carrageenan was injected subcutaneously into each hind foot pad of an anesthetized rat. […] Both hind feet were then removed and the levels of radioactivity in each foot and in the 200 μl plasma standard were measured in an automated gamma counter. From these measurements the volume of edema in each foot was calculated and expressed in microliters. […]

Test [4] has as its system circulating neutrophils and lymphocytes. In words: Circulating leucocytes after i.v. administration. In kind it is in vivo, rat. Here is the method:
Two experiments were done. In the first, the MAIF preparation was administered intravenously at a dose of 40 mg/rat to one group of 6 animals and a control group was injected with saline. Blood samples were obtained at baseline, 1, 4, and 24 hours after treatment.
A further dose-response study was carried out in which a group of rats were injected intravenously with saline, 5, 10 or 20 mg of the MAIF preparation. Blood from each rat had been taken 7 days previously to provide baseline values and was taken again 4 hours after the injection of MAIF. Included on the graph are the results obtained from the sample taken 4 hours after the administration of 40 mg the MAIF preparation (see FIG. 31).
Data were also obtained pertaining to the effect of three other cell-targeted, anti-inflammatory/immunomodulatory agents on circulating leucocytes in the rat. […] The temporal relationship between drug administration and effect is somewhat different. […] The effects of the anti-inflammatory factor would appear to closely parallel the action of methyl-prednisolone.

Test [5] concerns neutrophil adhesion to venular endothelium. In words: Intravital microscopy of PAF-exposed rat mesenteric venules. The note with it: PAF superfusion 100 nM, 60 min. In kind it is in vivo. As to the method: The temperature of the pedestal was maintained at 37° C. with a constant temperature circulator (Fisher Scientific, model 80).

As for superoxide dismutase, in test [1], the “cytochrome c reduction by PMA and fMLP-stimulated neutrophils” value is “completely blocked”.

As for `OC[C@H]1O[C@@H](O[C@H]2[C@H](O)[C@@H](O)C(O)O[C@@H]2CO)[C@H](O)[C@@H](O)[C@H]1O` (stereo partly drawn) [Lactose], the “suppression of neutrophil accumulation and hemorrhage” value in test [2] was “modest and marginally significant suppression”. Moreover, in test [2] (3.5 hours after challenge), the “Haemorrhage: μl of RBC” value was 3.0 ± 1.5 μl of RBC, the “Neutrophil accumulation: Units of MPO” value is recorded as 0.214 ± .176 Units of MPO and the “μl of Edema” value was 104 ± 23 µL.

In the case of `CC(=O)Oc1ccccc1C(=O)O` [aspirin, Acetylsalicylic acid], the inhibition of edema result in test [3] is “inhibited”.

On to `O=P1(N(CCCl)CCCl)NCCCO1` (stereo not drawn) [cyclophosphamide], for which the “circulating lymphocytes and neutrophils” value in test [4] (comparator agents) is “depletes both circulating lymphocytes and neutrophils”.

Regarding `C[C@H]1C[C@@H]2[C@H]([C@@H](O)C[C@@]3(C)[C@H]2CC[C@]3(O)C(=O)CO)[C@@]2(C)C=CC(=O)C=C12` [methylprednisolone], the lymphocyte/neutrophil ratio entry in test [4] (rat, in vivo) is given as “analogous to that seen with MAIF”.

`CCCCCCCCCCCCCCCCOCC(COP(=O)([O-])OCC[N+](C)(C)C)OC(C)=O` (stereo not drawn) [PAF]: the “increase in neutrophil adhesion to postcapillary venules” value in test [5] was “approximately 6 fold”.
